Patent US11161856B2 (H. Lundbeck A/S, priority 2017, dated 2021)

Columns and labels:
Type in all cases: biochemical
ABHD6 = biological target: T1, ABHD6 (Mus musculus, UniProt Q8R2Y0); test: In vitro competitive activity-based protein profiling, mouse brain proteome (ABHD6); details: mouse brain proteome; concentration not given (μM)
T1 construct: Brain; from tissue; host or cells: mouse brain proteome
T1 sequence (Q8R2Y0 1-336): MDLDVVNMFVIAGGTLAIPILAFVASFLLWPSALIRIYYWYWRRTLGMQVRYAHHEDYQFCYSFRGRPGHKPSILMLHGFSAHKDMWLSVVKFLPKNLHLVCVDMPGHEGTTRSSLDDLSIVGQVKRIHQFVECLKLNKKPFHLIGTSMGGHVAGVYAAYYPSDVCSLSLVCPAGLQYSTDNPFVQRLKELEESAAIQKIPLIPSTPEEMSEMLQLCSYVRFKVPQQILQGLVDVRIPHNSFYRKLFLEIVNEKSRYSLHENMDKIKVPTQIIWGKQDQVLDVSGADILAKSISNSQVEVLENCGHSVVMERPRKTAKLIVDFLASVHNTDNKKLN
Description: [The source words this procedure for another target and reports this target under the same test.] (§1) In Vitro Competitive Activity-Based Protein Profiling.
(§2) Proteomes (human prefrontal cortex or cell membrane fractions) (50 μL, 1.0 mg/mL total protein concentration) were preincubated with varying concentrations of inhibitors at 37° C. After 30 min, FP-Rh or HT-01 (1.0 μL, 50 μM in DMSO) was added and the mixture was incubated for another 30 min at room temperature. Reactions were quenched with SDS loading buffer (15 μL-4×) and run on SDS-PAGE.

MAGL = biological target: T2, MAGL (Homo sapiens, UniProt Q99685); test: In vitro competitive activity-based protein profiling (FP-Rh or HT-01 probe, gel-based); design: IC50 MGLL PC3 (Human, μM) / IC50 MGLL PFC (Human, μM): scale not given here; details: for IC50 MGLL PC3 (Human, μM) / % Inh MGLL PC3 (Human, μM): PC3 cell proteome; for % Inh MGLL PFC (Human, μM) / IC50 MGLL PFC (Human, μM): prefrontal cortex (PFC) proteome; for % Inh MGLL PFC (Human, μM) / % Inh MGLL PC3 (Human, μM): concentration not given (μM)
T2 construct: Proteomes (human prefrontal cortex or cell membrane fractions); from tissue
T2 sequence (Q99685 1-303): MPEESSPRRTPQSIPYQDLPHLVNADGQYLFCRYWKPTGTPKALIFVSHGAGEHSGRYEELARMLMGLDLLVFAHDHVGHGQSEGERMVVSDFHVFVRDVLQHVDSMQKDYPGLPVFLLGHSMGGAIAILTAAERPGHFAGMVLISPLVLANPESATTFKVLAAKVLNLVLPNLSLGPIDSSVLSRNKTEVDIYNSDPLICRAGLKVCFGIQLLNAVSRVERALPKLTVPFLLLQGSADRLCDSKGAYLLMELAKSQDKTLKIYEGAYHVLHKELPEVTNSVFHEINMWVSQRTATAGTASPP
Description: as §1, §2

MGLL = biological target: T3, MGLL (Mus musculus, UniProt O35678); test: In vitro competitive activity-based protein profiling, mouse brain proteome (MGLL); details: concentration not given (μM)
T3 construct: Brain; from tissue; host or cells: mouse brain proteome
T3 sequence (O35678 1-303): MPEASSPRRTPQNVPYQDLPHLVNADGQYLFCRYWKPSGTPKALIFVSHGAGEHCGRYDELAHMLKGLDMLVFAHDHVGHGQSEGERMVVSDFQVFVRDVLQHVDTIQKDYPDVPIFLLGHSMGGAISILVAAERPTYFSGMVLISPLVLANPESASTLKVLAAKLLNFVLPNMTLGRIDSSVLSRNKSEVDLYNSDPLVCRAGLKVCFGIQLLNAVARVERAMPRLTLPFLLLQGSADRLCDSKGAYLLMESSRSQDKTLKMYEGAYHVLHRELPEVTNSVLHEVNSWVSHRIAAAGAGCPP

Row | % Inh ABHD6 Brain (Mouse, μM) (ABHD6) | IC50 MGLL PC3 (Human, μM) (MAGL) | % Inh MGLL PFC (Human, μM) (MAGL) | % Inh MGLL Brain (Mouse, μM) (MGLL) | % Inh MGLL PC3 (Human, μM) (MAGL) | IC50 MGLL PFC (Human, μM) (MAGL) | SMILES
1 | ## (## is between 25 and 75%) | * * * | ### (### is ≥75%) | ### (### is ≥75%) |  |  | CN(Cc1ccc(C(F)(F)F)cc1-c1nnn[nH]1)C1(C)CCN(C(=O)OC(C(F)(F)F)C(F)(F)F)CC1 [Example 24, 1,1,1,3,3,3-Hexafluoropropan-2-yl 4-((2-(1H-tetrazol-5-yl)-4-(trifluoromethyl)benzyl)(methyl)amino)-4-methylpiperidine-1-carboxylate]
2 | ### (### is ≥75%) |  | ### (### is ≥75%) | ### (### is ≥75%) |  |  | O=C(O)C1CCN(c2cc(CN3CC4(CCN(C(=O)OC(C(F)(F)F)C(F)(F)F)CC4)C3)cc(C(F)(F)F)c2)CC1 [Example 99, 1-(3-((7-(((1,1,1,3,3,3-Hexafluoropropan-2-yl)oxy)carbonyl)-2,7-diazaspiro[3.5]nonan-2-yl)methyl)-5-(trifluoromethyl)phenyl)piperi-dine-4-carboxylic acid]
3 | ### (### is ≥75%) |  | ### (### is ≥75%) | ### (### is ≥75%) |  |  | O=C(O)C1CN(c2cc(CN3CC4(CCN(C(=O)OC(C(F)(F)F)C(F)(F)F)CC4)C3)cc(C(F)(F)F)c2)CCO1 (stereo not drawn) [Example 100, 4-(3-((7-(((1,1,1,3,3,3-Hexafluoropropan-2-yl)oxy)carbonyl)-2,7-diazaspiro[3,5]nonan-2-yl)methyl)-5-(trifluoromethyl)phenyl)morph-oline-2-carboxylic acid]
4 | ### (### is ≥75%) |  | ### (### is ≥75%) | ### (### is ≥75%) |  |  | O=C(O)C1CCN(c2cc(C(F)(F)F)ccc2CN2CC3(CCN(C(=O)OC(C(F)(F)F)C(F)(F)F)CC3)C2)C1 (stereo not drawn) [Example 101, l-(2-((7-(((1,1,1,3,3,3-Hexafluoropropan-2-yl)oxy)carbonyl)-2,7-diazaspiro[3,5]nonan-2-yl)methyl)-5-(trifluoromethyl)phenyl)pyrroli-dine-3-carboxylic acid]
5 | ### (### is ≥75%) |  | ### (### is ≥75%) | ### (### is ≥75%) |  |  | O=C(O)C1CCN(c2cc(C(F)(F)F)ccc2CN2CC3(CCN(C(=O)OC(C(F)(F)F)C(F)(F)F)CC3)C2)CC1 [Example 102, l-(2-((7-(((U,l,3,3,3-Hexafluoropropan-2-yl)oxy)carbonyl)-2,7-diazaspiro[3.5]nonan-2-yl)methyl)-5-(trifluoromethyl)phenyl)piperi-dine-4-carboxylic acid]

Second part, the compound before the results:

Row | SMILES | % Inh ABHD6 Brain (Mouse, μM) (ABHD6) | IC50 MGLL PC3 (Human, μM) (MAGL) | % Inh MGLL PFC (Human, μM) (MAGL) | % Inh MGLL Brain (Mouse, μM) (MGLL) | % Inh MGLL PC3 (Human, μM) (MAGL) | IC50 MGLL PFC (Human, μM) (MAGL)
6 | CC1(OCc2cc(CN3CCC(C(=O)O)CC3)cc(C(F)(F)F)c2)CCN(C(=O)OC(C(F)(F)F)C(F)(F)F)CC1 [Example 25, 1-(3-(((1-(((1,1,1,3,3,3-Hexafluoropropan-2-yl)oxy)carbonyl)-4-methylpiperidin-4-yl)oxy)methyl)-5-(trifluoromethyl)benzyl)piperidine-4-carboxylic acid] | ### (### is ≥75%) | * * * |  | ### (### is ≥75%) | ### (### is ≥75%) | 
7 | CN(Cc1ccc(C(F)(F)F)cc1N1CCN(CC(=O)O)CC1)C1(C)CCN(C(=O)OC(C(F)(F)F)C(F)(F)F)CC1 [Example 26, 2-(4-(2-(((1-(((1,1,1,3,3,3-Hexafluoropropan-2-yl)oxy)carbonyl)-4-methylpiperidin-4-yl)(methyl)amino)methyl)-5-(trifluoromethyl)phenyl)piperazin-1-yl)acetic acid] | ### (### is ≥75%) | * * * |  | ### (### is ≥75%) | ### (### is ≥75%) | * * *
8 | CN(Cc1ccc(C(F)(F)F)cc1N1CC2CC1CN2CC(=O)O)C1(C)CCN(C(=O)OC(C(F)(F)F)C(F)(F)F)CC1 (stereo not drawn) [Example 27, 2-(5-(2-(((1-(((1,1,1,3,3,3-Hexafluoropropan-2-yl)oxy)carbonyl)-4-methylpiperidin-4-yl)(methyl)amino)methyl)-5-(trifluoromethyl)phenyl)-2,5-diazabicyclo[2.2.1]heptan-2-yl)acetic acid] | ### (### is ≥75%) | * * * |  | ### (### is ≥75%) | ### (### is ≥75%) | * * *
9 | O=C(OC(C(F)(F)F)C(F)(F)F)N1CCC2(CCCN2C(=O)c2ccc(C(F)(F)F)cc2)CC1 [Example 83, 1,1,1,3,3,3-Hexafluoropropan-2-yl 1-(4-(trifluoromethyl)benzoyl)-1,8-diazaspiro[4.5]decane-8-carboxylate] | ### (### is ≥75%) |  | ### (### is ≥75%) | ### (### is ≥75%) |  | 
10 | O=C(O)C1COCCN1c1cc(CN2CC3(CCN(C(=O)OC(C(F)(F)F)C(F)(F)F)CC3)C2)cc(C(F)(F)F)c1 (stereo not drawn) [Example 103] | ## (## is between 25 and 75%) |  | ### (### is ≥75%) | ### (### is ≥75%) |  | 
11 | O=C(O)C1CCN(c2cc(CN3CC4(CCN(C(=O)OC(C(F)(F)F)C(F)(F)F)CC4)C3)cc(C(F)(F)F)c2)C1 (stereo not drawn) [Example 104, l-(3-((7-(((1,1,1,3,3,3-Hexailuoropropan-2-yl)oxy)carbonyl)-2,7-diazaspiro[3.5]nonan-2-yl)methyl)-5-(trifluoromethyl)phenyl) pyrrolidine-3-carboxylic acid] | ### (### is ≥75%) |  | ### (### is ≥75%) | ### (### is ≥75%) |  | 
12 | O=C(O)[C@@H]1CCCN(c2cc(CN3CC4(CCN(C(=O)OC(C(F)(F)F)C(F)(F)F)CC4)C3)cc(C(F)(F)F)c2)C1 [Example 105, (R)-1-(3-((7-(((1,1,1,3,3,3-Hexafluoropropan-2-yl)oxy)carbonyl)-2,7-diazaspiro[3,5]nonan-2-yl)methyl)-5-(trifluoromethyl)phenyl) piperidine-3-carboxylic acid] | ### (### is ≥75%) |  | ### (### is ≥75%) | ### (### is ≥75%) |  | 
13 | O=C(O)[C@H]1CCCN(c2cc(CN3CC4(CCN(C(=O)OC(C(F)(F)F)C(F)(F)F)CC4)C3)cc(C(F)(F)F)c2)C1 [Example 106, (S)-1-(3-((7-(((1,1,1,3,3,3-Hexafluoropropan-2-yl)oxy)carbonyl)-2,7-diazaspiro[3,5]nonan-2-yl)methyl)-5-(trifluoromelhyl)phenyl) piperidine-3-carboxylic acid] | ### (### is ≥75%) |  | ### (### is ≥75%) | ### (### is ≥75%) |  | 
14 | O=C(O)[C@@H]1CCCN(c2cc(C(F)(F)F)ccc2CN2CC3(CCN(C(=O)OC(C(F)(F)F)C(F)(F)F)CC3)C2)C1 [Example 107, (R)-1-(2-((7-(((1,1,1,3,3,3-Hexafluoropropan-2-yl)oxy)carbonyl)-2,7-diazaspiro[3,5]nonan-2-yl)methyl)-5-(trifluoromethyl)phenyl) piperidine-3-carboxylic acid] | # (# is ≤25%) |  | ### (### is ≥75%) | ### (### is ≥75%) |  | 
15 | CN(Cc1ccc(C(F)(F)F)cc1N1CCOC(C(=O)O)C1)C1(C)CCN(C(=O)OC(C(F)(F)F)C(F)(F)F)CC1 (stereo not drawn) [Example 108, 4-(2-(((1-(((1,1,1,3,3,3-Hexafluoropropan-2-yl)oxy)carbonyl)-4-methylpiperidin-4-yl)(methyl)amino)methyl)-5-(trifluoromethyl)phenyl) morpholine-2-carboxylic acid] | ## (## is between 25 and 75%) |  | ### (### is ≥75%) | ### (### is ≥75%) |  | 
